Some results are limits rather than exact numbers.

ERK2, sequence (P28482 whole entry): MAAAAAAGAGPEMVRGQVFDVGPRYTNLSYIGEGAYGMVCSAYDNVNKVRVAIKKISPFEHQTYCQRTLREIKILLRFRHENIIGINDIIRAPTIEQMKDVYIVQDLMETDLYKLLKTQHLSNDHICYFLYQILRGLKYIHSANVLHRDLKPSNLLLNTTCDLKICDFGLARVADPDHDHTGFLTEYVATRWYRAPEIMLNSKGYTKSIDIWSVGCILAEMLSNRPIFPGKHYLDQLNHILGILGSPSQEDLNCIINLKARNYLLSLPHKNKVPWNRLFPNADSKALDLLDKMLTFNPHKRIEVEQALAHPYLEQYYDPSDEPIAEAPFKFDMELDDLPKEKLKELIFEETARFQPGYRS

The first assay addresses ERK2 (Homo sapiens, UniProt P28482). Nature of the assay: ERK2 inhibition, spectrophotometric coupled-enzyme assay. The assay is classed as biochemical. The conditions noted are these: ERK2 Inhibitory Activity (Ki class), activated ERK2 10 nM, 65 μM ATP, 30° C., pH 7.5.
Take `O=C(NC1c2ccccc2CC1O)c1cc(-c2[nH]ncc2-c2cccc(Cl)c2)c[nH]1` (centres unmarked) [II-155]: the Ki (as a rule, a measure of affinity in units of concentration, obtained from inhibition or displacement) lay in the range of 1000 to 5000 nM.

The same assay, now with this note: activated ERK2 10 nM, 65 μM ATP, 30° C., pH 7.5; read-out: ERK2 Inhibitory Activity (Ki class).
As to `O=C(NCc1cccnc1)c1cc(-c2[nH]ncc2-c2cccc(F)c2)c[nH]1` [II-119], the Ki fell in the range of 1000 to 5000 nM.
Same read-out and setting: then `O=C(NCc1cccc(C(F)(F)F)c1)c1cc(-c2[nH]ncc2-c2cccc(Br)c2)c[nH]1` [II-47], with less than 1000 nM.
Consider `CN(C)CCNC(=O)c1cc(-c2[nH]ncc2-c2ccccc2)c[nH]1` [II-297], for which the Ki was greater than 5000 nM.
`CCOC(=O)c1cc(-c2[nH]ncc2-c2cccc(OC)c2)c[nH]1` [II-10]: the Ki is greater than 5000 nM.
Same read-out and setting: then `O=C(NCCO)c1cc(-c2[nH]ncc2-c2cccc(Br)c2)c[nH]1` [II-130], with 1000 to 5000 nM; and `O=C(NCc1cccnc1)c1cc(-c2[nH]ncc2-c2ccc(Cl)c(Cl)c2)c[nH]1` [II-74], with less than 1000 nM; and `CC(C)(C)OC(=O)N1CCCC(CNC(=O)c2cc(-c3[nH]ncc3-c3cc(Cl)cc(Cl)c3)c[nH]2)C1` (centres unmarked) [II-125], with 1000 to 5000 nM.
On the same count and under the same terms, then `Cc1ccc(CNC(=O)c2cc(-c3[nH]ncc3-c3cccc(Br)c3)c[nH]2)o1` [II-58], with less than 1000 nM; and `O=C(NCc1ccccc1)c1cc(-c2[nH]ncc2-c2cc(I)c(O)c([N+](=O)[O-])c2)c[nH]1` [II-52], with less than 1000 nM; and `NNC(=O)c1cc(-c2[nH]ncc2-c2cccc([N+](=O)[O-])c2)c[nH]1` [II-137], with 1000 to 5000 nM.
`O=C(c1cc(-c2[nH]ncc2-c2cccc(Br)c2)c[nH]1)N1CCC(O)(c2ccccc2)CC1` [II-102]: the Ki was less than 1000 nM.
Regarding `O=C(N[C@@H](CO)c1ccccc1)c1cc(-c2[nH]ncc2-c2cc(Cl)cc(Cl)c2)c[nH]1` [II-39], the Ki was less than 1000 nM.
The same measure, in the same setting: then `Cc1cccc(-c2cn[nH]c2-c2c[nH]c(C(=O)NCc3ccncc3)c2)c1` [II-96], with less than 1000 nM; and `O=C(c1cc(-c2[nH]ncc2-c2ccc(F)c(Cl)c2)c[nH]1)N1CCOCC1` [II-107], with less than 1000 nM; and `O=C(NCC1CCCO1)c1cc(-c2[nH]ncc2-c2ccc(F)c(F)c2)c[nH]1` (centres unmarked) [II-120], with 1000 to 5000 nM.
On to `Cc1ccccc1CNC(=O)c1cc(-c2[nH]ncc2-c2cccc(Br)c2)c[nH]1` [II-60], for which the Ki is less than 1000 nM.
Regarding `O=C(NC(CO)c1ccccc1)c1cc(-c2[nH]ncc2-c2cc(I)c(O)c([N+](=O)[O-])c2)c[nH]1` (centres unmarked) [II-42], the Ki is less than 1000 nM.
Still for that read-out and setting: the result for `O=C(N[C@@H](CO)Cc1ccccc1)c1cc(-c2[nH]ncc2-c2cccc(Br)c2)c[nH]1` [II-91] reads less than 1000 nM; that for `CCOC(=O)c1cc(-c2[nH]ncc2-c2cccc([N+](=O)[O-])c2)c[nH]1` [II-148], 1000 to 5000 nM.
On to `O=C(NC(CCO)c1ccccc1)c1cc(-c2[nH]ncc2-c2cccc(Br)c2)c[nH]1` (centres unmarked) [II-59], for which the Ki was less than 1000 nM.
As to `COc1cccc(-c2cn[nH]c2-c2c[nH]c(C(=O)N(C)C)c2)c1` [II-23], the Ki was less than 1000 nM.
Regarding `O=C(c1cc(-c2[nH]ncc2-c2cccc(Br)c2)c[nH]1)N1CCN(c2cnccn2)CC1` [II-138], the Ki was in the range of 1000 to 5000 nM.
For the compound `COc1cc2c(cc1OC)C(CO)N(C(=O)c1cc(-c3[nH]ncc3-c3cccc(Br)c3)c[nH]1)CC2` (centres unmarked) [II-105], the Ki is less than 1000 nM.
On to `CCC(NC(=O)c1cc(-c2[nH]ncc2-c2cccc(Br)c2)c[nH]1)c1ccccc1` (centres unmarked) [II-62], for which the Ki is less than 1000 nM.
`O=C(NCc1ccccc1)c1cc(-c2[nH]ncc2-c2cccc([N+](=O)[O-])c2)c[nH]1` [II-285]: the Ki lay in the range of 1000 to 5000 nM.
For the compound `CCOC(=O)c1cc(-c2[nH]ncc2-c2cccc(N)c2)c[nH]1` [II-9], the Ki is greater than 5000 nM.
For the compound `O=C(NNc1cccc(C(F)(F)F)c1)c1cc(-c2[nH]ncc2-c2cccc(Br)c2)c[nH]1` [II-56], the Ki is less than 1000 nM.
For `CNC(=O)c1cc(-c2[nH]ncc2-c2cccc(Br)c2)c[nH]1` [II-152], the Ki lay within 1000 to 5000 nM.
As to `O=C(NCc1ccccc1)c1cc(-c2n[nH]cc2-c2ccccc2)c[nH]1` [II-5, 4-(4-phenyl-1H-pyrazole-3-yl)-1H-pyrrole-2-carboxylic acid benzylamide], the Ki is less than 1000 nM.
On the same count and under the same terms, then `CCOC(=O)c1cc(-c2[nH]ncc2-c2cccc(Cl)c2)c[nH]1` [II-13], with less than 1000 nM; and `O=C(NC[C@@H]1CCCC[C@@H]1O)c1cc(-c2[nH]ncc2-c2cccc(Br)c2)c[nH]1` [II-65], with less than 1000 nM; and `CCOC(=O)c1cc(-c2[nH]ncc2-c2ccccc2)c[nH]1` [II-2], with greater than 5000 nM.
Regarding `O=C(NCc1ccco1)c1cc(-c2[nH]ncc2-c2ccccc2)c[nH]1` [II-22], the Ki was less than 1000 nM.
As to `COC(=O)c1cccc(-c2cn[nH]c2-c2c[nH]c(C(=O)NCc3ccccc3)c2)c1` [II-132], the Ki was 1000 to 5000 nM.
`COc1cccc(-c2cn[nH]c2-c2c[nH]c(C(=O)N3CCCC3)c2)c1` [II-24]: the Ki was less than 1000 nM.
On to `CCOC(=O)c1cc(-c2[nH]ncc2-c2ccc(F)cc2)c[nH]1` [II-11], for which the Ki was greater than 5000 nM.
With `CS(=O)(=O)c1ccc(CNC(=O)c2cc(-c3[nH]ncc3-c3cccc(Br)c3)c[nH]2)cc1` [II-55], the Ki was less than 1000 nM.
On the same count and under the same terms, then `Nc1cccc(-c2cn[nH]c2-c2c[nH]c(C(=O)NCc3ccccc3)c2)c1` [II-73], with less than 1000 nM; and `Nc1cc(-c2cn[nH]c2-c2c[nH]c(C(=O)NC(CO)c3ccccc3)c2)cc(I)c1O` (centres unmarked) [II-44], with less than 1000 nM.
Regarding `COc1cccc(-c2cn[nH]c2-c2c[nH]c(C(=O)N3CCN(C)CC3)c2)c1` [II-29], the Ki was greater than 5000 nM.
For `CCOC(=O)c1cc(-c2[nH]ncc2-c2cccc(F)c2)c[nH]1` [II-162], the Ki is greater than 5000 nM.
`O=C(N[C@@H](CO)Cc1ccc(O)cc1)c1cc(-c2[nH]ncc2-c2cccc(Br)c2)c[nH]1` [II-293]: the Ki is greater than 5000 nM.
Consider `CCOC(=O)c1cc(-c2[nH]ncc2-c2ccc(Cl)cc2)c[nH]1` [II-7], for which the Ki is greater than 5000 nM.
For the compound `O=C(c1cc(-c2[nH]ncc2-c2cccc(Br)c2)c[nH]1)N(CCCO)Cc1ccncc1` [II-156], the Ki was 1000 to 5000 nM.
`CCOC(=O)c1cc(-c2[nH]ncc2-c2cccc(Cl)c2)c[nH]1` [II-151]: the Ki fell in the range of 1000 to 5000 nM.
The same measure, in the same setting: the result for `O=C(NC(COc1ccccc1)c1ccc2c(c1)OCCO2)c1cc(-c2[nH]ncc2-c2cccc(Br)c2)c[nH]1` (centres unmarked) [II-290] reads 1000 to 5000 nM; that for `O=C(NC(CO)c1ccccc1)c1cc(-c2[nH]ncc2-c2cccc(C(F)(F)F)c2)c[nH]1` (centres unmarked) [II-49], less than 1000 nM.
`CCN(C)C(=O)c1cc(-c2[nH]ncc2-c2cccc(OC)c2)c[nH]1` [II-292]: the Ki is greater than 5000 nM.
With `O=C(c1cc(-c2[nH]ncc2-c2ccccc2)c[nH]1)N1CCCC1` [II-4], the Ki is less than 1000 nM.
Consider `COc1ccc(OC)c(CNC(=O)c2cc(-c3[nH]ncc3-c3cccc(Br)c3)c[nH]2)c1` [II-124], for which the inhibition constant (Ki) is 1000 to 5000 nM.
Regarding `O=C(NCc1ccc(-c2cnns2)cc1)c1cc(-c2[nH]ncc2-c2cccc(Br)c2)c[nH]1` [II-110], the Ki is less than 1000 nM.
As to `CCOC(=O)c1cc(-c2[nH]ncc2-c2ccc([N+](=O)[O-])cc2)c[nH]1` [II-165], the Ki is greater than 5000 nM.
`O=C(NCc1ccccc1)c1cc(-c2[nH]ncc2-c2cccc(O)c2)c[nH]1` [II-95]: the Ki is less than 1000 nM.
Turning to `O=C(Nc1ccc(F)c(F)c1)c1cc(-c2[nH]ncc2-c2cccc(Br)c2)c[nH]1` [II-40], the Ki is less than 1000 nM.
Same read-out and setting: then `CC(C)ONC(=O)c1cc(-c2[nH]ncc2-c2cccc(Br)c2)c[nH]1` [II-161], with greater than 5000 nM.

(Values after patent US6593357B1, “Pyrazole compositions useful as inhibitors of ERK” (Vertex Pharmaceuticals Incorporated, priority 2000, dated 2003).)
